Laboratory results published in US20070021351A1, “Liver/plasma concentration ratio for dosing hepatitis C virus protease inhibitor” (Schering Corporation, priority 2005, published 2007).

What was measured:
[1] = Example 2: food-effect crossover study, 600 mg single dose, healthy adult subjects; assay type: in vivo, human
Procedure: This was a randomized, open-label, single-dose, two-treatment (fed or fasted), two-period, two-sequence crossover study of the effect of food on the bioavailability of compound of Formula Ia in 23 healthy adult male and female subjects. The primary pharmacokinetic parameters were AUC(I) and Cmax for compound of Formula Ia. The study included a 7-day wash-out period between treatment periods.
Subjects were confined at the study site at least 14 hours prior to each treatment (Day-1). On the morning of Day 1, following a 10-hour overnight fast, subjects were randomized to receive in a particular order Treatment A and Treatment B: • Treatment A: compound of Formula Ia 600 mg (6×100 mg capsules) PO following an overnight fast. • Treatment B: compound of Formula Ia 600 mg (6×100 mg capsules) PO within 20 minutes following the completion of a standard high-fat breakfast. There was a 7-day wash-out period between receiving treatments.
Subjects receiving Treatment A received a formulation of compound of Formula Ia comprised of compound of Formula Ia and a pharmaceutically acceptable carrier, such as microcrystalline cellulose, while continuing to fast, while subjects randomized to Treatment B consumed a standardized high-fat meal prior to compound administration (within 20 minutes prior to the compound administration). The capsules along with approximately 240 mL of water were swallowed whole, not chewed or crushed. […] Water was permitted as desired except for 1 hour before and after compound administration. A washout period of at least 7 days separated the two treatment periods. Upon return to the clinic, subjects underwent the same procedures as the first period and continued the randomization sequence (subjects who received compound of Formula Ia fasted in Period 1 and then received compound of Formula Ia under fed conditions in Period 2, and vice versa).
Blood samples (7 mL each) for the determination of compound of Formula Ia levels were drawn immediately prior to dosing (0 hour), and at 0.5, 1, 1.5, 2, 2.5, 3, 4, 5, 6, 8, 12, 24, 36, and 48 hours after dosing. The blood samples were collected into tubes containing EDTA. The samples were centrifuged at 1500 g for 10 minutes to obtain plasma and the plasma samples were frozen at −20° C. and maintained in the frozen state until assayed.
Plasma concentrations of compound of Formula Ia were determined using a validated liquid chromatography tandem mass spectrometry (LC-MS/MS) method. The assay lower limit of quantitation (LLOQ) was 0.50 ng/mL and the method was validated over the concentration range of 0.50 to 1000 ng/mL.
The mean and percent coefficient of variation (% CV) were calculated for plasma concentrations of compound of Formula Ia at each time point. Concentration values less than the assay LLOQ were reported as, and set to zero in the tables and calculations. The plasma concentration-time data for compound of Formula Ia were subjected to pharmacokinetic analysis by noncompartmental methods using WinNonlin software. Nominal sampling times were used for pharmacokinetic analysis, since none of the pharmacokinetic sampling time deviations were >10% of the nominal times. For each subject, the following pharmacokinetic parameters were determined for compound of Formula Ia: maximum plasma concentration (Cmax), time of maximum observed plasma concentration (Tmax), the final quantifiable sampling time (tf), area under the plasma concentration-time curve from time 0 to tf (AUC[tf]), AUC(I) (AUC[tf]+C[tf]estimated/K) and Vd/F. The K and C(tf)estimated are defined as terminal elimination rate constant and estimated concentration at final quantifiable sample, respectively. Terminal phase half-life (t½=In2/K) and apparent clearance (CL/F=Dose/AUC[I]) were also determined. Cmax, Tmax and tf were the observed values. […]

[2] = Pharmacokinetic parameter values on administration to a subject (summary); assay type: in vivo
Procedure: When the compounds are administered in fed subjects the bioavailability of the compound is increased about 100% and the mean Tmax of the compound of Formula Ia is increased about 60%.

[3] = Liver versus plasma concentration in monkeys (non-GLP assay); assay type: in vivo; settings: about 24 hours after dosing
Procedure: For the purpose of the present invention and the data presented herein, the liver to plasma ratio is calculated by determining the IC90 of a compound and inferring the concentration of the compound in the liver based on the concentration of the compound which causes a 90% decrease in viral load. […] It is known that concentrations of the compounds of Formulae I-XXVI in the liver of rats are about thirty to fifty times greater than plasma concentrations, whereas concentrations in the brain are below detection. In monkeys, concentration of the compound of Formula Ia determined by non-GLP assay of plasma sample taken about 24 hours after dosing of the compound was about five times greater in the liver than in plasma.

[4] = human, plasma, oral, summary range, dose not stated

## CC(C)(C)NC(=O)N[C@H](C(=O)N1C[C@H]2[C@@H]([C@H]1C(=O)NC(CC1CCC1)C(=O)C(N)=O)C2(C)C)C(C)(C)C (mixture of isomers) [Formula Ia, (1R,5S)-N-[3-Amino-1-(Cyclobutylmethyl)-2,3-Dioxopropyl]-3-[2(S)-[[[(1,1-Dimethylethyl)Amino]Carbonyl]Amino]-3,3-Dimethyl-1-Oxobutyl]-6,6-Dimethyl-3-Azabicyclo[3.1.0]Hexan-2(S)-Carboxamide]
[1]; 600 mg oral
  apparent mean Vd/F, fed versus fasted (times lower): about five
[1]; 600 mg oral dose, fed and fasted states
  safety profile: low frequency of treatment emergent and treatment related AEs
[1]; 600 mg single oral dose
  delay of median Tmax, fed versus fasted: approximately three
  median concentration at 8 hours, fed relative to fasted: more than 4 fold
  median concentration at 12 hours, fed relative to fasted: 2 fold
[1]; 600 mg single oral dose, fed, mean, n=19
  AUC(I): 3697 ng·h/mL
[1]; 600 mg, female, n=10
  AUC(l) ratio estimate, fed to fasted: 225%
  AUC(tf) ratio estimate, fed to fasted: 229%
  Cmax ratio estimate, fed to fasted: 170%
[1]; 600 mg, high-fat meal relative to fasted
  increase of relative (oral) bioavailability (AUC) in the fed state: over 100%
[1]; 600 mg, male, n=10
  AUC(l) ratio estimate, fed to fasted: 202%
  AUC(tf) ratio estimate, fed to fasted: 205%
  Cmax ratio estimate, fed to fasted: 155%
[1]; 600 mg, n=20
  AUC(l) ratio estimate, fed to fasted: 214%
  AUC(tf) ratio estimate, fed to fasted: 217%
  Cmax ratio estimate, fed to fasted: 162%
[1]; in 12 of the 20 subjects who completed both periods
  absorption lag time in the fed state vs the fasted state: > 0.5 h
[2]; fed subjects
  increase of bioavailability: about 100%
  increase of mean Tmax: about 60%
[2]; [4]
  Cmax: 50 to 800 ng/mL
  Tmax: 1 to 5 h
  Vd/F: 1500 to 6000 L
  half-life: 120 to 900 min
[2]; human, plasma, oral, summary range, dose not stated, read-out: AUC(0-8 hr)
  AUC(0-t): 500 to 3000 ng·h/mL
[3]
  concentration in liver relative to plasma: about five
